Legend:
[1] = system: MDA-MB-468 (triple negative breast cancer); experiment: BrdU incorporation into DNA in MDA-MB-468 cells; type: cell-based; conditions: Homo sapiens, mean of multiple measurements
Excerpt: Upon adding bromodeoxyuridine (BrdU) to dividing cells, Thymidine is replaced by its analogue, BrdU, and BrdU is incorporated into DNA. Thus, BrdU incorporated into DNA characterizes the intensity of DNA replication and ongoing S phase of the cell cycle. Reduced incorporation of bromodeoxyuridine into DNA under the action of the compounds characterizes a slowdown in the cell cycle and DNA replication.
The ability of the CDK7 inhibitors according to the present invention to inhibit the incorporation of BrdU into DNA was evaluated in a cell test on continuous cell cultures: MDA-MB-468 (triple negative breast cancer, ATCC® HTB-132™) using a BrdU detection kit (Roche, order no. 11 669 915 001)). The cells were grown in DMEM medium (PanEco, order no. C330π). The basal growth medium was enriched with L-glutamine at a concentration of 2 mM (PanEco, order no. Φ032) and 10% fetal bovine serum (Gibco, order no. 16140-071). MDA-MB-468 adherent cells were detached from plastic with a solution of trypsin-EDTA (PanEco, order no. Π039π), the solution was then inactivated by a DMEM complete medium, centrifuged at 1000 RPM (Eppendorf, 5804 R), a suspension of cells was prepared in a DMEM complete medium, introduced into 96-well culture plates (Corning Inc, order no. 3599) at 4×10^3 cells in 75 μl of medium per well. Test compounds were dissolved in DMSO and diluted with a DMEM complete medium to a final concentration ranging from 0.5 μM to 2 μM. Serum-free growth medium was removed from plate wells, and solutions comprising diluted compounds in the volume of 100 μl in basal growth medium were added. Candidates were introduced into the plate wells with cells in triplicates (the final concentration of DMSO was no more than 1%) and incubated at 37° C. in an incubator with 5% CO2 for 24 hours. Following incubation, 10 μl of solution of BrdU at a concentration of 10 μM was added to wells, the contents of the plates were agitated on an orbital shaker (Biosan, Latvia), and incubated for additional 72 hours at 37° C. in an incubator with 5% CO2. Incorporated BrdU was then detected according to the guidelines of the kit manufacturer. […] 100 μl of substrate solution was introduced into each analyzed well and incubated for 3 minutes at room temperature (+15-25° C.) on an orbital shaker (Biosan, Latvia) and for another 5-7 minutes without stirring.
The amount of incorporated BrdU was detected on the Infinite M200Pro microplate spectrophotometer (Tecan Group Ltd, Switzerland) by measuring the luminescent signal. IC50 value was calculated using the Magellan software (Tecan Group Ltd, Switzerland) by approximating experimental points by four-parameter model with the optimization by Levenberg-Marquardt.

[2] = Blood-brain barrier permeability: PK in mice brain homogenate following oral administration; type: in vivo, CD-1 mice; conditions: male, CD-1, mouse, dose 10 mg/kg; for Kp: brain homogenate / plasma, mice, read-out: AUCbrain/AUCplasma; for AUC(0-t) / Cmax / Tmax / half-life: mice brain homogenate; for half-life: read-out: t½ (converted)
Method: The ability of substances to penetrate the blood-brain barrier and enter the central nervous system (mouse brain) was evaluated by the ratio of their areas under pharmacokinetic curves in […] and blood plasma following oral administration, characterizing tissue bioavailability to the […], and expressed as the AUCbrain/AUCplasma coefficient.
Pharmacokinetic studies of the compounds were carried out on CD-1 mice, males, aged about 8 weeks, weighing 16-29 g. Animals were subjected a single oral (PO) administration (intragastrically) at a dose of 10 mg/kg in a formulation in the form of a 0.2% solution of hydroxypropyl methylcellulose (HPMC) in a 5% aqueous solution of glucose.
21 animals were used for each substance. All mice were weighed and randomized before dosing.
3 animals were used for each time point. Biomaterials were collected from each animal at one time point. At least 12 h before the start of the experiment, the animals were deprived of food while maintaining free access to water. Blood and brain samples were collected 0.5, 2, 4, 6, 8, 12 and 16 h after administration of the substance.
All manipulations were carried out analogously to Example 54.
Perfusion of mice brains was carried out with saline solution via the vascular system. To this end, the chest was opened, the right atrium was incised with microsurgical scissors, and saline cooled to 4° C. was administered using a 10-ml syringe into the left ventricle until the liver turned white. After washing, the skull was opened and the brain removed, it was weighed and transferred to labeled 5 ml tubes.
A 4-fold volume of water was added to the brain suspension and homogenized using a homogenizer (Omni Bead Ruptor 24) 2 times for 45 seconds. Analogously, the intact mice brain homogenate was prepared, which was then used to prepare calibration samples and QC samples. The calibration curve was generated by analyzing brain homogenate samples with supplementations of known amounts of the standard of the compound being determined.
Samples were precipitated with cooled acetonitrile at 1:4 ratio, containing the internal standard tolbutamide (Sigma, T0891) at a concentration of 50 ng/ml. Samples were stirred on a vortex mixer (G560E, Scientific Industries) for 10 seconds and kept at 4° C. for 15 minutes to precipitate proteins, then centrifuged (5417R centrifuge, Eppendorf) for 10 minutes at 1500 g. […] of supernatants were collected and transferred to corresponding wells of a 96-well plate for HPLC-MS/MS analysis. Quantitative determination of test compounds in brain homogenates was carried out analogously to the procedure described in Example 54. Lower limit of quantitative determination of test compounds in brain homogenate was 0.3 ng/ml.
Pharmacokinetic analysis of data was performed analogously to the procedure described in Example 54.
In addition to main PK parameters, the ratio of concentration in the brain and plasma at the studied time points (AUCbrain/AUCplasma) was calculated to assess bioavailability in the brain (permeability through the blood-brain barrier).

IC50 [1] [nM] | SMILES | Kp [2] | AUC(0-t) [2] [ng·h/mL] | Cmax [2] [ng/mL] | Tmax [2] [h] | half-life [2] [h]
24 | CC1(C)CC[C@H](Nc2ncc(C(F)(F)F)c(-c3c[nH]c4c3CCCN(C3CC3)C4=O)n2)CN1 [CDK7_1225, 7-cyclopropyl-3-(2-{[(3S)-6,6-dimethylpiperidin-3-yl]amino}-5-(trifluoromethyl)py-rimidin-4-yl)-1H,4H,5H,6H,7H, 8H-pyrrolo[2,3-c]azepin-8-one] | 0.165 | 855 | 93.8 | 6 | 2.33
28 | CC(C)N1CCCc2c(-c3nc(N[C@H]4CCC(C)(C)NC4)ncc3C(F)(F)F)c[nH]c2C1=O [CDK7_1229, 3-(2-{[(3S)-6,6-dimethylpiperidin-3-yl]amino}-5-(trifluoromethyl)py-rimidin-4-yl)-7-(propan-2-yl)-1H,4H,5H,6H,7H, 8H-pyrrolo[2,3-c]azepin-8-one] | 0.182 | 909 | 136 | 0.5 | 2.25
14 | CN1CCCc2c(-c3nc(N[C@H]4CCC(C)(C)NC4)ncc3C(F)(F)F)c[nH]c2C1=O [CDK7_1187, 3-(2-{[(3S)-6,6-dimethylpiperidin-3-yl]amino}-5-(trifluoromethyl)py-rimidin-4-yl)-7-methyl-1H,4H,5H,6H,7H, 8H-pyrrolo[2,3-c]azepin-8-one] | – | – | – | – | –
– | CC(C)N1CCCc2c(-c3nc(N[C@H]4CCC5(CC5)NC4)ncc3C(F)(F)F)c[nH]c2C1=O [CDK7_1277, 3-(2-{[(6S)-4-azaspiro[2.5]octan-6-yl]amino}-5-(trifluoromethyl)py-rimidin-4-yl)-7-(propan-2-yl)-1H,4H,5H,6H,7H, 8H-pyrrolo[2,3-c]azepin-8-one] | 0.302 | 1750 | 226 | 2 | 2.76

SMILES | IC50 [1] [nM] | Kp [2] | AUC(0-t) [2] [ng·h/mL] | Cmax [2] [ng/mL] | Tmax [2] [h] | half-life [2] [h]
O=C1c2[nH]cc(-c3nc(N[C@H]4CCC5(CC5)NC4)ncc3C(F)(F)F)c2CCCN1C1CC1 [CDK7_1276, 3-(2-{[(6S)-4-azaspiro[2.5]octan-6-yl]amino}-5-(trifluoromethyl)py-rimidin-4-yl)-7-cyclopropyl-1H,4H,5H,6H,7H, 8H-pyrrolo[2,3-c]azepin-8-one] | 2 | 0.243 | 1940 | 335 | 0.5 | 1.99

Source: patent US20260137698A1, “CYCLIN-DEPENDENT KINASE 7 INHIBITORS” (JOINT STOCK COMPANY «BIOCAD», priority 2022, published 2026)
